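Results reflect a 48-hour exposure of cells in 96-well plates to compound at five concentrations. Definition used: TGI = concentration required for complete inhibition of growth.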
Experiments:
Experiment in all cases: growth of human tumour cells (NCI), 48 h
SF-268 CNS = system: SF-268 CNS
HOP-92 NSCLC = system: HOP-92 NSCLC
HCT-15 colon = system: HCT-15 colon
K-562 leukemia = system: K-562 leukemia
MDA-MB-435 = system: MDA-MB-435
SNB-19 CNS = system: SNB-19 CNS
MDA-N = system: MDA-N
PC-3 prostate = system: PC-3 prostate
COLO 205 colon = system: COLO 205 colon
KM12 colon = system: KM12 colon
SK-MEL-5 melanoma = system: SK-MEL-5 melanoma
RPMI-8226 leukemia = system: RPMI-8226 leukemia
OVCAR-3 ovarian = system: OVCAR-3 ovarian
HCT-116 colon = system: HCT-116 colon
786-0 renal = system: 786-0 renal
MDA-MB-231 breast = system: MDA-MB-231 breast

| SMILES | TGI (SF-268 CNS) [µM] | TGI (HOP-92 NSCLC) [µM] | TGI (HCT-15 colon) [µM] | TGI (K-562 leukemia) [µM] | TGI (MDA-MB-435) [µM] | TGI (SNB-19 CNS) [µM] | TGI (MDA-N) [µM] | TGI (PC-3 prostate) [µM] | TGI (COLO 205 colon) [µM] | TGI (KM12 colon) [µM] | TGI (SK-MEL-5 melanoma) [µM] | TGI (RPMI-8226 leukemia) [µM] | TGI (OVCAR-3 ovarian) [µM] | TGI (HCT-116 colon) [µM] | TGI (786-0 renal) [µM] | TGI (MDA-MB-231 breast) [µM] |
| --- | --- | --- | --- | --- | --- | --- | --- | --- | --- | --- | --- | --- | --- | --- | --- | --- |
| COc1ccc(/C=C2\CC3C4CC=C5C[C@@H](N6CCCC6)CC[C@]5(C)C4CC[C@]3(C)[C@H]2O)cc1OC (some centres not stated) | 22.4 | 23.4 | 14.2 | 37.5 | 14.3 | 19.1 | 14.9 | 12.6 | 15.8 | 14.2 | 14.3 | 22.1 | 16.8 | 15.8 | 11.1 | 15.1 |
| ON[C@@H]1C=C[C@H](n2cnc3c(NC4CC4)ncnc32)C1 | > 100 | > 100 | > 100 | > 100 | > 100 | > 100 | > 100 | > 100 | > 100 | > 100 | > 100 | > 100 | > 100 | > 100 | > 100 | > 100 |
| COc1ccc2c(c1)C1Oc3ccccc3CC1CO2 (configuration not stated) | > 100 | 87 | > 100 | > 100 | > 100 | > 100 | > 100 | > 100 | > 100 | > 100 | > 100 | 65.4 | > 100 | > 100 | > 100 | > 100 |
| COc1cc2c(cc1OCCCN1CCOCC1)N=C[C@@H]1CCCN1C2=O | > 100 | 7.4 | 74.2 | > 100 | 31 | > 100 | 97.5 | 72.4 | 4.55 | 43.4 | 27.4 | 5.83 | 8.08 | 54.3 | > 100 | > 100 |
| C=C(Cl)C(Cl)(CBr)CCCC(C)C (configuration not stated) | 40.1 | 31.7 | > 85.4 | > 100 | > 100 | 47.4 | 97.1 | 27.5 | 34.9 | 24.2 | > 100 | > 27.3 | 12.4 | 24 | 26.4 | > 69.5 |
| Fc1nc(-c2c3ccccc3c3sc4ccccc4n23)nc(N2CCOCCOCCOCCOCC2)n1 | > 100 | 93 | > 100 | > 100 | > 100 | > 100 | > 100 | > 100 | > 100 | > 100 | > 100 | > 100 | > 100 | > 100 | > 100 | > 100 |
| Cc1cc(NS(=O)(=O)c2ccc(NC(=O)c3ccc4nc5ccccc5c(Nc5ccc(S(N)(=O)=O)cc5)c4c3)cc2)no1 | > 100 | 78.3 | 41.3 | 44.6 | 45.3 | > 100 | 66 | > 100 | 43.8 | 59.1 | 41 | 68 | 74.4 | 63.2 | 30.8 | 67.1 |
| Cc1ccccc1-n1c(=O)nc2n(-c3ccc(C(C)(C)C)cc3)c3ccccc3cc-2c1=O | 83.2 | 50.1 | 32.8 | > 100 | 27.9 | 54.4 | 82.4 | 45.6 | 41.6 | 29.8 | 28.5 | 52.9 | 40.9 | 28.8 | 69.9 | 42.9 |
| COC(=O)/C=C1/OC(c2ccccc2)=C(Br)C1=O | > 100 | > 100 | > 100 | > 100 | > 100 | > 100 | > 100 | > 100 | > 100 | > 100 | > 100 | > 100 | > 100 | > 100 | 81.6 | 66.3 |
| CC(C)(C(=O)N(C(=O)N1CCN(c2ccccc2)CC1)S(=O)(=O)c1ccccc1)c1ccc(Cl)cc1 | > 100 | 53.6 | > 100 | > 100 | > 100 | > 100 | > 100 | 70.3 | 42.7 | > 100 | > 100 | > 100 | 99.3 | > 100 | > 100 | > 100 |
| CCCCCCCCCCCCCCCCNc1nc(=O)n(C2CC(O)C(COP(=O)(O)OC3CC(n4cc(F)c(=O)[nH]c4=O)OC3CO)O2)cc1F (configuration not stated) | > 34.2 | > 59.5 | 50.9 | 24.1 | > 100 | 3.39 | > 100 | > 78.6 | 47.4 | > 81.4 | > 41.9 | 25.5 | > 100 | > 100 | > 100 | > 91.5 |
| CC1=NN(c2ccccc2Cl)C2(C1)C(Cl)C(=O)N2c1nc2ccccc2s1 (configuration not stated) | > 100 | > 100 | > 100 | > 100 | > 100 | > 100 | > 100 | > 100 | > 100 | > 100 | > 100 | 58.6 | 53.1 | > 100 | > 100 | > 100 |
| CC(Oc1ccc(Cl)cc1Cl)C(=O)NN1C(=O)CC(=O)NC1=S (configuration not stated) | > 100 | > 100 | > 100 | > 100 | > 100 | > 100 | > 100 | > 100 | > 100 | > 100 | > 100 | > 100 | > 100 | > 100 | > 100 | > 100 |
| COC(=O)c1ccc(C)cc1C1CN=NC12Cc1c(C)cccc1C2=O (configuration not stated) | > 100 | 97 | > 100 | > 100 | > 71.2 | > 100 | > 100 | > 100 | 42.8 | > 84.8 | > 53.2 | > 75.3 | > 100 | > 86.9 | > 100 | > 100 |
| CC1(c2cccc(C(F)(F)F)c2)CC(c2cccc(C(F)(F)F)c2)=C(C#N)C(=C(C#N)C#N)N1 (configuration not stated) | 31.1 | 10.6 | 33.1 | 34.2 | 32.6 | 40 | 33.6 | 34.7 | 30.8 | 32.9 | 29 | 47 | 24.6 | 29.2 | 31.2 | 40.7 |
| CC1CCC2C(C(=O)O[C@H]3C4C=CO[C@@H](OC5OC(CO)C(O)C(O)C5O)C4[C@@]4(CO)O[C@@H]34)=CO[C@@H](OC3OC(CO)C(O)C(O)C3O)C12 (some centres not stated) | > 10 | > 10 | > 10 | > 10 | > 10 | > 10 | > 10 | > 10 | > 10 | > 10 | > 10 | > 10 | > 10 | > 10 | > 10 | > 10 |
| O=C(O)CNc1ncc2c(n1)-c1ccccc1OC2 | > 100 | > 100 | > 100 | > 100 | > 100 | > 100 | > 100 | > 100 | > 100 | > 100 | > 100 | > 100 | > 100 | > 100 | > 100 | > 100 |

— PubChem BioAssay (NCI)
